The values that follow come from patent US6958340B2, “Tyrosine kinase inhibitors” (Merck & Co., Inc., priority 2001, dated 2005).

The term melting point denotes the temperature, or range, at which the solid turns liquid.

Each structure is given as a SMILES string.

For the molecule `Cc1cc(C)cc(Nc2nccc(-n3ccnc3-c3ccccc3)n2)c1` [Compound 1-24, N-(3,5-dimethylphenyl)-4-(2-phenyl-1H-imidazol-1-yl)pyrimidin-2-amine], the melting point turned out to be 183 °C.
